How the values were obtained:
[1] = test system: SKNO-1; assay: Half-maximal growth inhibition (GI50), SKNO-1; format: cell-based; conditions: Homo sapiens, 240 h, AML, M2, RUNX1-RUNX1T1, read-out: GI50 (nM), day 10
Protocol: (§1) Compounds A, B, C, D, and F were tested against various cell lines to probe their broad utility against cancer. Cortistatin A (CA) was also tested against the cell lines in a head to head fashion.

[2] = test system: MV4; 11; assay: Half-maximal growth inhibition (GI50), MV4; 11; format: cell-based; conditions: Homo sapiens, 240 h, AML, M5, MLL-AF4, read-out: GI50 (nM), day 10
Protocol: as §1

[3] = test system: MOLM-14; assay: Half-maximal growth inhibition (GI50), MOLM-14; format: cell-based; conditions: Homo sapiens, 240 h, AML, M5, MLL-AF9, read-out: GI50 (nM), day 10
Protocol: as §1

[4] = test system: HEL; assay: Half-maximal growth inhibition (GI50), HEL; format: cell-based; conditions: Homo sapiens, 240 h, AML, erythroleukemia, JAK2V617F, read-out: GI50 (nM), day 10
Protocol: as §1

[5] = test system: MKPL1; assay: Half-maximal growth inhibition (GI50), MKPL1; format: cell-based; conditions: Homo sapiens, 240 h, AML, M7, read-out: GI50 (nM), day 10
Protocol: as §1

[6] = test system: OCI-AML2; assay: Half-maximal growth inhibition (GI50), OCI-AML2; format: cell-based; conditions: Homo sapiens, 240 h, AML, M4, DNMT3A R635W, read-out: GI50 (nM), day 10
Protocol: as §1

[7] = test system: K562; assay: Half-maximal growth inhibition (GI50), K562; format: cell-based; conditions: Homo sapiens, 240 h, CML, BCR-Abl, read-out: GI50 (nM), day 10
Protocol: as §1

[8] = test system: Human AML cell line MV4;11; assay: MV4;11 disseminated leukemia model (bioluminescence); format: in vivo, NSG mice; conditions: each compound at its own dose/schedule; data from 3 separate studies
Protocol: The in vivo anti-leukemic activity of Compounds A, B, C, D, and F was tested at the indicated doses and treatment schedules. The doses were chosen based on the compounds tolerability profile (i.e. CA was dosed at 0.16 mg/kg because higher doses caused weight loss or other tolerability issues outlined in Example 6). Human AML cell line MV4;11 expressing mCherry and luciferase were injected into NSG mice. Upon measurement of leukemia cell engraftment, treatment was initiated. Body weight and bioluminescence were measured. It has previously been shown (Shair, Nature 2015) that bioluminescence corresponds to leukemia burden. […] Moreover there was no appreciable advantage between IV or PO dosing observed.

[9] = in vivo; conditions: male, CD-1, mouse, ip, 0.16 mg/kg
Protocol: Formulation correction for salt content was not required for this study. Materials were vortexed and sonicated at room temperature following addition of vehicle. The solutions were maintained at ambient temperature stirring in the dark for at least 30 minutes prior to dose administration. The formulations were then vortexed and sonicated briefly to help ensure solubility.
Mice were selected from the Testing Facility's rodent colony. The animals were enrolled in the study based on acceptable health as determined by Testing Facility personnel on the day of test article administration. Animals were held in environmental acclimation for at least 48 hours (±6 hours) prior to dosing. Animals were maintained at temperatures between 16-26° C. (62-78° F.) with the humidity range between 30-70%. Animals in all groups were fasted overnight and food was returned 4 hours following dosing. Water was provided ad libitum throughout the study.
Whole blood samples for plasma were either collected from each animal by either direct vein puncture of the submandibular vein (survival blood collection) or by cardiac puncture following euthanasia with CO2 (terminal blood collection). […] Following collection, whole blood was placed into a tube containing K2EDTA and immediately placed on wet ice until processed for plasma. Whole blood samples were centrifuged at 2200×g for 10 minutes in a refrigerated centrifuge (5±3° C.) to isolate plasma. The samples were transferred to individual polypropylene containers and immediately placed on dry ice before storage at −70±10° C. until analysis. Plasma collected from undosed spare animals was pooled and analyzed as well.
Once collected the mouse plasma studies were quantitated using LCMS/MS spectroscopy to determine the concentration of compound. […] Eight calibration standards containing the analyte and internal standard imipramine were prepared and analyzed at the beginning and at the end of the sequence. A calibration curve was generated and sample concentrations calculated using the Quantitation software MassHunter.

[10] = target: T1, Opiate μ(OP3, MOP) (Homo sapiens, UniProt P35372); assay: Panlab assay, Opiate μ(OP3, MOP); format: binding
T1 construct: Eurofins Panlabs
T1 sequence (P35372 whole entry): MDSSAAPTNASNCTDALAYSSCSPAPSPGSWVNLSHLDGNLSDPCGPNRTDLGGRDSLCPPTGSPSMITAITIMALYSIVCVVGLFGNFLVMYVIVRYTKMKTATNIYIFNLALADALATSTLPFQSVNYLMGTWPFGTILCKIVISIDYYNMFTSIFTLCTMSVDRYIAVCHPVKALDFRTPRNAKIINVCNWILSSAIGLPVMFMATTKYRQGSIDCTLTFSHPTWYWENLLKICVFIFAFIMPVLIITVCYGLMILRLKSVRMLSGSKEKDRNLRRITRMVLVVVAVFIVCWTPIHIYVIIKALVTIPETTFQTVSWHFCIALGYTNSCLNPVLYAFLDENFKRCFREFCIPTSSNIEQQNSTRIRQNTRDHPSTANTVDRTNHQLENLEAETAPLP
Protocol: (§2) Compounds A, B, C, and D were tested in Panlab assays to evaluate potential off-target activity using standard assay kits. Methods employed in these studies have been adapted from the scientific literature to maximize reliability and reproducibility.
IC50 values were determined by a non-linear, least squares regression analysis using MathIQ™ (ID Business Solutions Ltd., UK). […] Where presented, the Hill coefficient (nH), defining the slope of the competitive binding curve, was calculated using MathIQ™.

[11] = target: T2, Adenosine Transporter (Cavia porcellus, UniProt H0V4R7); assay: Panlab assay, Adenosine Transporter; format: binding; conditions: reference standard
T2 sequence (H0V4R7 1-461): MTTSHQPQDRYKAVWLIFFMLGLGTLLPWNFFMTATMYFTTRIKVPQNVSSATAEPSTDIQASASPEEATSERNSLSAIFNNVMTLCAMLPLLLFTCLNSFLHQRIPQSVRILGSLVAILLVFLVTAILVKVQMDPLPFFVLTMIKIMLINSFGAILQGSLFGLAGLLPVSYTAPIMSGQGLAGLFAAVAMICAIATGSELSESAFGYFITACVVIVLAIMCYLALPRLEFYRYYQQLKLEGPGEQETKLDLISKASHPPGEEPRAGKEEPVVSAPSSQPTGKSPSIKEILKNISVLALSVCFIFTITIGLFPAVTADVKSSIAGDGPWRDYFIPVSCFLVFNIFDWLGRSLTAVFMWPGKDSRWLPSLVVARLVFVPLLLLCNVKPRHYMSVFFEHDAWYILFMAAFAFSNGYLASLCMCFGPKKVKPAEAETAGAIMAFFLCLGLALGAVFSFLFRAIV
Protocol: as §2, with “reproducibility. Reference standards were run as an integral part of each assay to ensure the validity of the results obtained.” for “reproducibility.”
IC50 values were determined by a non-linear, least squares regression analysis using MathIQ™ (ID Business Solutions Ltd., UK). Where inhibition constants (Ki) are presented, the Ki values were calculated using the equation of Cheng and Prusoff (Cheng, Y., Prusoff, W. H., Biochem. Pharmacol. 22:3099-3108, 1973) using the observed IC50 of the tested compound, the concentration of radioligand employed in the assay, and the historical values for the KD of the ligand (obtained experimentally at Eurofins Panlabs, Inc.). Where presented, the Hill coefficient (nH), defining the slope of the competitive binding curve, was calculated using MathIQ™.

## CN(C)[C@H]1C[C@@]23CC[C@@]4(O2)C(=CC[C@]2(C)[C@@H](c5ccc6ccncc6c5)CC[C@H]24)C=C3[C@@H](O)[C@@H]1O [Cortistatin A]
[1]
  GI50: < 1 nM
[2]
  GI50: < 1 nM
[3]
  GI50: < 1 nM
[4]
  GI50: > 1000 nM
[5]
  GI50: < 1 nM
[6]
  GI50: 1 nM
[7]
  GI50: > 1000 nM
[8]
  Efficacy Rank Day 15: 4
[9]
  AUC(0-inf): 134 ng·h/mL

## C[C@@H](NC(=O)[C@@H](N)Cc1ccc(O)cc1)C(=O)NCC(=O)N(C)[C@@H](Cc1ccccc1)C(=O)NCCO [DAMGO, reference compound]
[10]
  nH (Hill coefficient), Opiate μ(OP3, MOP): 0.75

## O=[N+]([O-])c1ccc(CSc2ncnc3c2ncn3C2OC(CO)C(O)C2O)cc1 (stereo not drawn) [nitrobenzylthioinosine, Nitrobenzylthioinosine, reference compound]
[11]
  IC50: 0.35 nM
[11]; Cheng and Prusoff
  Ki: 0.12 nM

Source: US20180298024A1, “CORTISTATIN ANALOGS AND USES THEREOF” (President and Fellows of Harvard College, priority 2015, published 2018)
